Assay results from PubChem BioAssay (NCI).
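Exposure lasted 48 hours, with cells grown in 96-well plates and compounds tested at five concentrations. GI50 = concentration required for 50% inhibition of growth. TGI: total growth inhibition.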

Columns and labels:
Test in all cases: NCI anticancer screen, dose series, 48 h
[1] = system: 786-0 renal
[2] = system: A498 renal
[3] = system: A549 NSCLC
[4] = system: ACHN renal
[5] = system: BT-549 breast
[6] = system: CAKI-1 renal
[7] = system: CCRF-CEM leukemia
[8] = system: COLO 205 colon
[9] = system: DU-145 prostate
[10] = system: EKVX NSCLC
[11] = system: HCC-2998 colon
[12] = system: HCT-116 colon
[13] = system: HCT-15 colon
[14] = system: HL-60(TB) leukemia
[15] = system: HOP-62 NSCLC
[16] = system: HOP-92 NSCLC
[17] = system: HS 578T breast
[18] = system: HT29 colon
[19] = system: IGROV1 ovarian
[20] = system: K-562 leukemia
[21] = system: KM12 colon
[22] = system: LOX IMVI melanoma
[23] = system: M14 melanoma
[24] = system: MALME-3M melanoma
[25] = system: MCF7 breast
[26] = system: MDA-MB-231 breast
[27] = system: MDA-MB-435
[28] = system: MOLT-4 leukemia
[29] = system: NCI-H226 lung
[30] = system: NCI-H23 lung
[31] = system: NCI-H460 lung
[32] = system: NCI-H522 lung
[33] = system: NCI/ADR-RES ovarian
[34] = system: OVCAR-3 ovarian
[35] = system: OVCAR-4 ovarian
[36] = system: OVCAR-5 ovarian
[37] = system: OVCAR-8 ovarian
[38] = system: PC-3 prostate
[39] = system: RPMI-8226 leukemia
[40] = system: RXF 393 renal
[41] = system: SF-268 CNS
[42] = system: SF-295 CNS
[43] = system: SF-539 CNS
[44] = system: SK-MEL-2 melanoma
[45] = system: SK-MEL-28 melanoma
[46] = system: SK-MEL-5 melanoma
[47] = system: SK-OV-3 ovarian
[48] = system: SN12C renal
[49] = system: SNB-19 CNS
[50] = system: SNB-75 CNS
[51] = system: SR leukemia
[52] = system: SW-620 colon
[53] = system: T-47D breast
[54] = system: TK-10 renal
[55] = system: U251 CNS
[56] = system: UACC-257 melanoma
[57] = system: UACC-62 melanoma
[58] = system: UO-31 renal

Compound: COc1cccc(-n2ncc3c(N/N=C/c4ccc(F)cc4)ncnc32)c1
- GI50 [1]: 11.8 µM
- TGI [1]: > 19.5 µM
- GI50 [2]: > 16.1 µM
- TGI [2]: > 25 µM
- GI50 [3]: 11.6 µM
- TGI [3]: > 25 µM
- GI50 [4]: > 25 µM
- TGI [4]: > 25 µM
- GI50 [5]: > 25 µM
- TGI [5]: > 25 µM
- GI50 [6]: > 18.7 µM
- TGI [6]: > 25 µM
- GI50 [7]: > 25 µM
- TGI [7]: > 25 µM
- GI50 [8]: > 25 µM
- TGI [8]: > 25 µM
- GI50 [9]: 17.4 µM
- TGI [9]: > 25 µM
- GI50 [10]: > 25 µM
- TGI [10]: > 25 µM
- GI50 [11]: > 25 µM
- TGI [11]: > 25 µM
- GI50 [12]: 10.2 µM
- TGI [12]: > 25 µM
- GI50 [13]: > 25 µM
- TGI [13]: > 25 µM
- GI50 [14]: > 25 µM
- TGI [14]: > 25 µM
- GI50 [15]: 16.7 µM
- TGI [15]: > 25 µM
- GI50 [16]: 6.48 µM
- TGI [16]: 19.9 µM
- GI50 [17]: 7.51 µM
- TGI [17]: 22.1 µM
- GI50 [18]: > 25 µM
- TGI [18]: > 25 µM
- GI50 [19]: > 25 µM
- TGI [19]: > 25 µM
- GI50 [20]: > 25 µM
- TGI [20]: > 25 µM
- GI50 [21]: 18.4 µM
- TGI [21]: > 25 µM
- GI50 [22]: > 25 µM
- TGI [22]: > 25 µM
- GI50 [23]: > 23.6 µM
- TGI [23]: > 25 µM
- GI50 [24]: 11.3 µM
- TGI [24]: > 25 µM
- GI50 [25]: > 17 µM
- TGI [25]: > 25 µM
- GI50 [26]: 8.59 µM
- TGI [26]: > 25 µM
- GI50 [27]: 14.5 µM
- TGI [27]: > 25 µM
- GI50 [28]: > 25 µM
- TGI [28]: > 25 µM
- GI50 [29]: > 25 µM
- TGI [29]: > 25 µM
- GI50 [30]: > 20.1 µM
- TGI [30]: > 25 µM
- GI50 [31]: 10.3 µM
- TGI [31]: 24.7 µM
- GI50 [32]: > 19.1 µM
- TGI [32]: > 25 µM
- GI50 [33]: 14.2 µM
- TGI [33]: > 25 µM
- GI50 [34]: 5.27 µM
- TGI [34]: 10.3 µM
- GI50 [35]: 6.55 µM
- TGI [35]: 14.5 µM
- GI50 [36]: > 25 µM
- TGI [36]: > 25 µM
- GI50 [37]: 14.8 µM
- TGI [37]: > 25 µM
- GI50 [38]: > 25 µM
- TGI [38]: > 25 µM
- GI50 [39]: > 25 µM
- TGI [39]: > 25 µM
- GI50 [40]: 10.6 µM
- TGI [40]: 24.9 µM
- GI50 [41]: > 25 µM
- TGI [41]: > 25 µM
- GI50 [42]: > 25 µM
- TGI [42]: > 25 µM
- GI50 [43]: 13.9 µM
- TGI [43]: > 25 µM
- GI50 [44]: > 25 µM
- TGI [44]: > 25 µM
- GI50 [45]: > 25 µM
- TGI [45]: > 25 µM
- GI50 [46]: 14.7 µM
- TGI [46]: > 25 µM
- GI50 [47]: 13.6 µM
- TGI [47]: > 25 µM
- GI50 [48]: 23 µM
- TGI [48]: > 25 µM
- GI50 [49]: 24.5 µM
- TGI [49]: > 25 µM
- GI50 [50]: 5.98 µM
- TGI [50]: > 18.6 µM
- GI50 [51]: > 25 µM
- TGI [51]: > 25 µM
- GI50 [52]: 24.3 µM
- TGI [52]: > 25 µM
- GI50 [53]: 11.6 µM
- TGI [53]: > 25 µM
- GI50 [54]: 12.4 µM
- TGI [54]: > 23.3 µM
- GI50 [55]: 8.81 µM
- TGI [55]: > 21.9 µM
- GI50 [56]: > 25 µM
- TGI [56]: > 25 µM
- GI50 [57]: > 25 µM
- TGI [57]: > 25 µM
- GI50 [58]: > 14.6 µM
- TGI [58]: > 25 µM
